In the NIST ThermoML archive (doi:10.1021/je100423n):

Assay: molar heat capacity at constant pressure
Details: 101.33 kPa, Crystal

Cn1cc[n+](CCCCS(=O)(=O)[O-])c1 [4-(1-methyl-1H-imidazolium-3-yl)butane-1-sulfonate]
Details | molar heat capacity at constant pressure [J/K/mol]
235.68 K | 210
237.67 K | 211.8
239.66 K | 212.72
242.01 K | 212.87
244.29 K | 213.82
246.26 K | 215.02
248.23 K | 216.05
250.19 K | 217.52
252.24 K | 219.72
254.3 K | 221.07
256.34 K | 222.28
258.38 K | 223.16
260.41 K | 224.41
262.43 K | 226.87
264.45 K | 228.3
266.45 K | 230.63
268.46 K | 233.04
270.45 K | 233.66
272.44 K | 235.64
274.42 K | 237.81
276.4 K | 239.51
278.38 K | 241.25
280.34 K | 243.42
282.3 K | 245.29
284.25 K | 246.94
286.19 K | 249.67
288.12 K | 252.87
290.04 K | 253.95
291.95 K | 254.73
293.85 K | 255.69
295.85 K | 257.59
297.85 K | 258.49
299.75 K | 260.96
301.74 K | 261.24
303.72 K | 264.66
305.71 K | 264.36
307.78 K | 264.22
309.84 K | 267.13
311.9 K | 269.55
313.95 K | 271.31
315.99 K | 273.57
318.03 K | 274.9
320.06 K | 276.18
322.09 K | 278.14
324.11 K | 279.41
326.12 K | 281.91
328.13 K | 283.31
330.13 K | 285.02
332.13 K | 286.68
334.12 K | 289.14
336.11 K | 290.13
338.09 K | 291.64
340.07 K | 293.16
342.04 K | 294.72
344 K | 297.82
345.96 K | 300.22
347.92 K | 301.67
349.87 K | 302.61
351.81 K | 304.94
353.75 K | 306.16
355.69 K | 308.54
357.62 K | 308.82
359.54 K | 310.24
361.47 K | 312.31
363.48 K | 313.02
365.48 K | 315.16
367.47 K | 315.19
369.54 K | 318.14
371.62 K | 320.13
373.68 K | 321.14
375.73 K | 323.95
377.79 K | 324.83
379.83 K | 325.26
381.87 K | 327.6
383.9 K | 332.07
385.94 K | 334
387.96 K | 335.27
389.98 K | 335.42
391.98 K | 337.63
393.99 K | 338.39
395.97 K | 341.92
397.96 K | 344.53
